Laboratory results taken from patent US20140187422A1, “Fungicidal substituted 1--1H-[1,2,4]triazole compounds” (BASF SE, priority 2011, published 2014).
Like-named read-outs stand apart in the source and are kept apart here.

Tests used:
[1] = system: Pyriculana oryzae; format: cell-based; conditions: relative growth vs control (100%), 7 days after inoculation
[2] = system: Pyrenophora teres; test: Microtiter test: activity against net blotch Pyrenophora teres on barley (Pyrnte); format: cell-based
Method: M3 Activity against net blotch Pyrenophora teres on barley in the microtiter test ([…] stock solutions were mixed according to the ratio, pipetted onto a micro titer plate (MTP) and diluted with water to the stated concentrations. A spore suspension of Pyrenophora teres in an aqueous biomalt or yeast-bactopeptone-glycerine solution was then added. The plates were placed in a water vapor-saturated chamber at a temperature of 18° C. Using an absorption photometer, the MTPs were measured at 405 nm 7 days after the inoculation. The measured parameters were compared to the growth of the active compound-free control variant (100%) and the fungus-free and active compound-free blank value to determine the relative growth in % of the pathogens in the respective active compounds.

[3] = system: Septoria tritici; test: Microtest: activity against leaf blotch on wheat caused by Septoria tritici (Septtr); format: cell-based; conditions: relative growth vs active compound-free control (100%), 7 days after inoculation
[4] = system: Septoria tritici; test: Green house: curative control of leaf blotch on wheat caused by Septoria tritici (Septtr K7); format: in vivo; conditions: sprayed 7 days after inoculation, % diseased leaf area, untreated control 80
Method: The spray solutions were prepared in several steps: The stock solution were prepared: a mixture of acetone and/or dimethylsulfoxide and the wetting agent/emulsifier Wettol, which is based on ethoxylated alkylphenoles, in a relation (volume) solvent-emulsifier of 99 to 1 was added to 25 mg of the compound to give a total of 5 ml. Water was then added to total volume of 100 ml. This stock solution was diluted with the described solvent-emulsifier-water mixture to the given concentration. G1 Curative control of leaf blotch on wheat caused by Septoria tritici (Septtr K7) Leaves of pot-grown wheat seedling were inoculated with an aqueous spore suspension of Septoria tritici. Then the trial plants were immediately transferred to a humid chamber at 18-22° C. and a relative humidity close to 100%. After 4 days the plants were transferred to a chamber with 18-22° C. and a relative humidity close to 70%. Seven days after inoculation the plants were sprayed to run-off with an aqueous suspension of the active compound or their mixture, prepared as described. Then the plants were transferred back to the chamber with 18-22° C. and a relative humidity close to 70%. After 4 weeks the extent of fungal attack on the leaves was visually assessed as % diseased leaf area.

SMILES | Growth (%) at 2 ppm Pyrior [1] | Growth (%) at 8 ppm Pymte [2] | Growth 0 (%) at 0.002 ppm Septtr [3] | Growth (%) at 0.5 ppm Pyrior [1] | Growth (%) at 8 ppm Pymte ([2]; relative growth vs control (100%), 7 days after inoculation) | Disease (%) at 250 ppm Septtr K7 [4]
CC(O)(Cn1cncn1)c1ccc(Oc2ccc(Cl)cc2)cc1Cl (stereo not shown) | 23% | 62% |  |  |  | 
COC(Cn1cncn1)c1ccc(Oc2ccc(Cl)cc2)cc1Cl (stereo not shown) |  |  | 72% |  |  | 
COC(Cn1cncn1)(c1ccc(Oc2ccc(Cl)cc2)cc1Cl)C1CC1 (stereo not shown) [I-1, 1-[2-[2-chloro-4-(4-chlorophenoxy)phenyl]-2-cyclopropyl-2-methoxy-ethyl]-1,2,4-triazole] | 0% |  | 10% | 21% | 12% | 1%
CCC(Cn1cncn1)(OC)c1ccc(Oc2ccc(Cl)cc2)cc1Cl (stereo not shown) |  | 39% |  | 47% |  | 
